# Tests used:
# [1] = Effect on urinary recovery of carbapenem (imipenem) in rats; format: in vivo, Male SD rats; conditions: urine up to 8 hours, n = 3
# Description: (2) Effect on urinary recovery of carbapenem
# Male SD rats (8 week-old) were grouped, three per group. Imipenem alone was intravenously administered in a dose of 10 mg/kg to a first group. […] For comparison, a combination of imipenem (10 mg/kg) and cilastatin (10 mg/kg) was intravenously administered to a fourth group.
# The urinary recovery of imipenem was calculated.
# [2] = tested on: nephrotoxicity induced by imipenem; experiment: Protective action on nephrotoxicity induced by imipenem in rabbits; format: in vivo, male Japanese white rabbits; conditions: compound 150 mg/kg + imipenem 150 mg/kg
# Description: (3) Protective action on nephrotoxicity induced by carbapenem antibiotics
# Twelve male Japanese white rabbits (18 week-old; body weight 3.19-3.54 kg) were divided into three groups each consisting of 4 animals. Imipenem alone was administered in a dose of 150 mg/kg to a first group. To a second group, a combination of imipenem (150 mg/kg) and the compound No. 2 (150 mg/kg) was administered. To a third group as a control, sterilized physiological saline was administered. In all cases, the administration was effected through the auricular vein. Forty-eight hours later, a blood sample was taken from each of the animals, and the BUN and creatinine values were measured. The kidneys of the rabbits were taken and examined histopathologically.
# [3] = Pharmacokinetic evaluation: plasma concentration in rats; format: in vivo, Male SD rats; conditions: plasma, rat; for AUC: trapezoidal rule; for concentration at 0.5 h: 1/2 h; for concentration at 0.25 h: 1/4 h; for concentration at 5 min: 1/12 h
# Description: (4) Pharmacokinetic evaluations
# Male SD rats ([…]) were divided into groups each consisting of three animals. […] Furthermore, cilastatin was intravenously administered to a 14th group as a control group.
# Plasma samples were taken periodically from the carotid artery through a cannula inserted into it at the points of 1/12, 1/4, 1/2, 1, 2, 4, 6, 8 and 24 hours after the administration.
# The area under the curve (AUC) of the plasma concentration was determined according to the trapezoidal rule.
# [4] = Pharmacokinetic evaluation: plasma concentration in dogs; format: in vivo, Male beagle dogs; conditions: dog; for concentration at 0.5 h: 1/2 h; for concentration at 0.25 h: 1/4 h; for concentration at 5 min: 1/12 h; for AUC: trapezoidal rule
# Description: Male beagle dogs (14 month-old) were divided into groups each having three animals. The compound No. 2 was administered intravenously to a first group in a dose of 10 mg/kg. The compound No. 2 was orally administered to a second group in a dose of 10 mg/kg. Then at the points of 1/12, 1/4, 1/2, 1, 2, 4, 6, 8, 24 and 48 hours after the administration, plasma samples were taken periodically from the cephalic vein, and the plasma concentrations of the compounds were measured by an enzyme assay using porcine DHP-I. The results are shown in Table 4-b. The area under the curve (AUC) of the plasma level was determined according to the trapezoidal rule.
# ddY mice = experiment: Acute toxicity test in mice; format: in vivo, Male ddY mice; conditions: 7 days
# Description: (5) Acute toxicity test in mice
# Male ddY mice (4 week-old; body weight 24-26 g) were divided into groups each consisting of 5 animals. The compound No. 2 was intravenously administered to a first group in a dose of 2,000 mg/kg. The compound No. 2 was orally administered to a second group in a dose of 4,000 mg/kg. After the administration, the incidence of death was observed over 7 days after the administration, and the results are shown in Table 5.
# [5] = iv 10 mg/kg (cilastatin dose not given)
smiles,measurement,setting,value
"CC(C)CP(=O)(O)C/C(=C\C1CCCCC1)C(=O)O [Compound No. 2, (Z)-3-cyclohexyl-2-(hydroxyisobutylphosphinoyl)methylpropenoic acid]","Urinary recovery of imipenem, Mean ± S.D.",[1]; inhibitor 10 mg/kg iv with imipenem 10 mg/kg iv,95.3 ± 6.1%
same,"Urinary recovery of imipenem, Mean ± S.D.",[1]; inhibitor 10 mg/kg po 30 minutes before imipenem 10 mg/kg iv,52.1 ± 4.9%
same,"Necrosis of the kidney tissue, number of rabbits which necrotized versus number tested",[2],0/4
same,BUN,"[2]; auricular vein, 48 hours",16.2 mg/100 ml
same,Creatinine,"[2]; auricular vein, 48 hours",1.49 mg/dL
same,Necrosis of the kidney tissue,[2]; grade in words,None
same,AUC,[3]; [5],162000 ng·h/mL
same,AUC,[3]; po 10 mg/kg,24300 ng·h/mL
same,concentration at 0.5 h,[3]; [5],53700 ng/mL
same,concentration at 0.25 h,[3]; [5],60700 ng/mL
same,concentration at 5 min,[3]; [5],84900 ng/mL
same,concentration at 1 h,"[3]; iv 10 mg/kg (cilastatin dose not given), N.D.: below the detection limit",42400 ng/mL
same,concentration at 2 h,[3]; iv 10 mg/kg,21800 ng/mL
same,concentration at 4 h,[3]; iv 10 mg/kg,10500 ng/mL
same,concentration at 6 h,"[3]; iv 10 mg/kg, N.D.: below the detection limit",5400 ng/mL
same,concentration at 8 h,[3]; iv 10 mg/kg,2500 ng/mL
same,concentration at 0.5 h,[3]; po 10 mg/kg,6800 ng/mL
same,concentration at 0.25 h,[3]; po 10 mg/kg,6600 ng/mL
same,concentration at 5 min,[3]; po 10 mg/kg,3300 ng/mL
same,concentration at 1 h,[3]; po 10 mg/kg,5400 ng/mL
same,concentration at 2 h,[3]; po 10 mg/kg,3800 ng/mL
same,concentration at 4 h,[3]; po 10 mg/kg,2100 ng/mL
same,concentration at 6 h,[3]; po 10 mg/kg,1200 ng/mL
same,concentration at 8 h,"[3]; po 10 mg/kg, N.D.: below the detection limit",400 ng/mL
same,concentration at 0.5 h,[4]; iv 10 mg/kg,52200 ng/mL
same,concentration at 0.25 h,[4]; iv 10 mg/kg,71000 ng/mL
same,concentration at 5 min,[4]; iv 10 mg/kg,87300 ng/mL
same,concentration at 1 h,[4]; iv 10 mg/kg,40800 ng/mL
same,concentration at 2 h,[4]; iv 10 mg/kg,24500 ng/mL
same,concentration at 4 h,[4]; iv 10 mg/kg,6700 ng/mL
same,concentration at 6 h,[4]; iv 10 mg/kg,2400 ng/mL
same,concentration at 8 h,[4]; iv 10 mg/kg,1200 ng/mL
same,concentration at 24 h,[4]; iv 10 mg/kg,100 ng/mL
same,AUC,[4]; iv 10 mg/kg,144000 ng·h/mL
same,concentration at 0.5 h,[4]; po 10 mg/kg,5800 ng/mL
same,concentration at 0.25 h,[4]; po 10 mg/kg,3000 ng/mL
same,concentration at 5 min,[4]; po 10 mg/kg,500 ng/mL
same,concentration at 1 h,[4]; po 10 mg/kg,9600 ng/mL
same,concentration at 2 h,[4]; po 10 mg/kg,7800 ng/mL
same,concentration at 4 h,[4]; po 10 mg/kg,3100 ng/mL
same,concentration at 6 h,[4]; po 10 mg/kg,1600 ng/mL
same,concentration at 8 h,[4]; po 10 mg/kg,700 ng/mL
same,concentration at 24 h,[4]; po 10 mg/kg,700 ng/mL
same,AUC,[4]; po 10 mg/kg,51500 ng·h/mL
same,"Mortality, number of dead mice versus number of mice tested","ddY mice; i.v. 2,000 mg/kg",0/5
same,"Mortality, number of dead mice versus number of mice tested","ddY mice; p.o. 4,000 mg/kg",0/5

# Source: patent US4988681A, “Phosphinic acid derivatives” (Banyu Pharmaceutical Co., Ltd., priority 1988, dated 1991)
